Active and inactive are the calls of the source.
How the values were obtained:
Estrogen receptor beta [1] = target: T1, Estrogen receptor beta (Homo sapiens, UniProt Q92731); test: blockers of SRC-3 recruitment to ERβ – biochemical, ELISA, streptavidin-HRP readout, orthogonal assay, confirmation (AID 1060)
Vero [2] = test: mammalian cell viability reduction – secondary assay, cytotoxicity control for West Nile virus antiviral project, dose response (AID 1650); type: functional; conditions: Chlorocebus sabaeus
[3] = target: T2, Ubiquitin-conjugating enzyme E2 N (Homo sapiens, UniProt P61088); type: functional;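 also: Dose-response confirmation in a TR-FRET assay detecting UBC13-driven polyubiquitin chain formation, inhibition measured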
T2 sequence (P61088 whole entry): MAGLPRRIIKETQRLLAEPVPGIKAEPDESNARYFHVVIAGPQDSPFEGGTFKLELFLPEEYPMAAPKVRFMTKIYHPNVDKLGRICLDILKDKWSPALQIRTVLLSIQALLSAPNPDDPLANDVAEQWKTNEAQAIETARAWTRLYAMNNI

[4] = Luminescence Cell-Based Dose Response to Identify Activators of 5'UTR Stem-Loop Driven Prion Protein mRNA Translation in H4-C Neuroglioblastoma Cells. [Related pubchem assays: 1829 (Project Summary), 1814 (Primary HTS)]; type: functional
[5] = Luminescence Cell-Based Dose Response to Identify Activators of Luciferase Translation or Activity in H4-C Neuroglioblastoma Cells. [Related pubchem assays: 1829 (Project Summary), 1814 (Primary HTS)]; type: functional
[6] = Luminescence Cell-Based Dose Confirmation to Identify Activators of 5'UTR Stem-Loop Driven Alpha-Synuclein mRNA Translation in H4 Neuroglioblastoma Cells. [Related pubchem assays: 1829 (Project Summary), 1814 (Primary HTS)]; type: functional
[7] = Luminescence Cell-Based Dose Response HTS to Identify Activators of Luciferase Translation or Activity in H4 […] Cells. [Related pubchem assays: 1829 (Project Summary), 1814 (Primary HTS)]; type: functional
[8] = Luminescence Cell-Based Dose Confirmation HTS to Identify Activators of 5'UTR Stem-Loop Driven Alpha-Synuclein mRNA Translation in H4 Neuroglioblastoma Cells. [Related pubchem assays: 1829 (Project Summary), 1814 (Primary HTS)]; type: functional
H4 = test: Luminescence Cell-Based Dose Response HTS to Identify Activators of 5'UTR Stem-Loop Driven Prion Protein mRNA Translation in H4 Neuroglioblastoma Cells. [Related pubchem assays: 1829 (Project Summary), 1814 (Primary HTS)]; type: functional; conditions: Homo sapiens
[9] = HPDE-C7 pancreatic duct cell viability loss – fluorescence, HTS (AID 430); type: functional, cell-based; conditions: Homo sapiens
[10] = SNU-C1 cell viability reduction, dose response, CellTiter-Glo luminescence (AID 1117323); type: functional, cell-based
[11] = cytotoxicity toward HT-29 cells – cell-based, CellTiter-Glo luminescence, IC50, dose response (AID 1117330); type: functional
[12] = Reduced DLD-1 viability, concentration-response, CellTiter-Glo luminescence (AID 1117352); type: functional
[13] = viability of PTEN-deleted HCT116 cells – cell-based, HCT116 PTEN knockout, dose response (AID 1047); type: functional;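 also: HCT116 colon tumor cells with PTEN knocked out; cells exposed to compound for 60 hours before readout; potency for loss of cell viability measured by luminescence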
[14] = glucagon-like peptide-1 release potency in STC-1, concentration-response, half-maximal inhibitory concentration in the STC-1 line (AID 1117345); type: functional, cell-based
[15] = cytotoxicity toward Colo320 cells – cell-based, CellTiter-Glo luminescence, IC50, dose response (AID 1117334); type: functional; conditions: COLO 320
[16] = viability of HCT116 lacking mutant beta-catenin – cell-based, human colon tumor, dose response (AID 1045); type: functional;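 also: HCT116 colon tumor cells with beta catenin knocked out; cells exposed to compound for 60 hours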
[17] = RKO cell viability reduction, dose response, CellTiter-Glo luminescence (AID 1117322); type: functional
[18] = HCT116 cell viability decrease, GSK3B pretreatment – CellTiter-Glo, IC50, dose response (AID 1117339); type: functional; conditions: HCT-116
[19] = CellTiter-Glo luminescence survival assay, SW480 colon tumor line, concentration-response curve, half-maximal inhibitory concentration (AID 1117338); type: functional
[20] = cytotoxicity toward HCT116 cells – cell-based, CellTiter-Glo luminescence, IC50, dose response (AID 1117332); type: functional; conditions: HCT-116
[21] = Potency on glucagon-like peptide 1 release, dose-response in NCI-H716 cell line, half maximal inhibitory concentration (AID 1117344); type: functional, cell-based
[22] = viability loss of HPDE-C7K cells – cell-based, fluorescence, HTS, primary screen (AID 431); type: functional; conditions: Homo sapiens
[23] = viability loss in THP-1 monocytes – THP-1 cells, cytotoxicity control for Vif-APOBEC3G degradation inhibitor project, dose response (AID 1117359); type: functional; conditions: THP-1
[24] = target: T3, Rac GTPase-activating protein 1 (Homo sapiens, UniProt Q9H0H5); test: blockers of MgcRacGAP-driven Rac1 GTP hydrolysis – biochemical, ADP Hunter fluorescence, primary and confirmatory, confirmation (AID 624330); type: functional
T3 sequence (Q9H0H5 whole entry): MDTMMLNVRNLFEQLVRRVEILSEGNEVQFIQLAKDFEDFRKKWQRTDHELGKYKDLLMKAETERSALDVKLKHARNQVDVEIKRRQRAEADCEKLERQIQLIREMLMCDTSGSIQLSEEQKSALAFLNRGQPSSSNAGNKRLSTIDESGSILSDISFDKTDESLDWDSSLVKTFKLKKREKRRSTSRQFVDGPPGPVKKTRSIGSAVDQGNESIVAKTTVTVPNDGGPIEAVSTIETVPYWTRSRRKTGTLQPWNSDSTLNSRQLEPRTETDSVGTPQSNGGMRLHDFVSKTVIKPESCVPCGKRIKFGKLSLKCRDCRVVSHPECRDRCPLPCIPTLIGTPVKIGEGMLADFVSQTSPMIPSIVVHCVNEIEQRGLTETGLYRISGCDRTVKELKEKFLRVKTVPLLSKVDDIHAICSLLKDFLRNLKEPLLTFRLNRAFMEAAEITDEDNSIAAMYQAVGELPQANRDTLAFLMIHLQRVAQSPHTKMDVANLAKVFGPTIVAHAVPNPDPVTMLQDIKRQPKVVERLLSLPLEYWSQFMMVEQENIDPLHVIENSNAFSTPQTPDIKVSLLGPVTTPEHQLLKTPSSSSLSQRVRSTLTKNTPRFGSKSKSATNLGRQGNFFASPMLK

Protein Tat = target: T4, Protein Tat (Human immunodeficiency virus type 1 group M subtype B (isolate HXB2)(HIV-1), UniProt P04608); type: functional;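 also: tat binding to TAR RNA read out by fluorescence polarization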
T4 sequence (P04608 whole entry): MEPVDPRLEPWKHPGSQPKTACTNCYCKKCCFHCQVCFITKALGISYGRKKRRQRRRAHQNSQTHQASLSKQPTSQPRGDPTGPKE

Vero [25] = test: cells; type: functional; conditions: Chlorocebus sabaeus
[26] = HIV-1 Vif–A3G interaction blockers – biochemical, TR-FRET, GST-Vif 1-94, biotin-A3G peptide, dose response retest, primary screen (AID 1117319); type: functional;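 also: TR-FRET signal of purified GST-Vif binding a biotinylated A3G peptide; inhibitors lower the FRET signal by blocking Vif and A3G binding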
[27] = target: Aryl hydrocarbon receptor (Homo sapiens, UniProt P35869); test: Luminescence-based cell-based high throughput dose response assay for activators of the Aryl Hydrocarbon Receptor (AHR). [Related pubchem assays: 2796 (Primary screen (AHR activators in singlicate)), 2845 (Confirmation screen (AHR activators in triplicate)), 434939 (Counterscreen (PXR activators in triplicate)), 2804 (Summary (AHR activators))]; type: ADME
[28] = target: Heat shock protein HSP 90-alpha (Homo sapiens, UniProt P07900); test: Luminescence-based dose response biochemical high throughput screening assay for inhibitors of the Heat Shock Protein 90 (HSP90). [Related pubchem assays: 1831 (Summary AID.), 1846 (Confirmation screen.), 1789 (Primary screen.)]
Protein RecA = target: T5, Protein RecA (Mycobacterium tuberculosis, UniProt P9WHJ3); test: Fluorescence Cell-Free Homogeneous Dose Retest to Identify Inhibitors of RecA-Intein Splicing Activity. [Related pubchem assays (depositor defined):AID2097, AID2223, AID489010, AID492950]; type: functional
T5 sequence (P9WHJ3 whole entry): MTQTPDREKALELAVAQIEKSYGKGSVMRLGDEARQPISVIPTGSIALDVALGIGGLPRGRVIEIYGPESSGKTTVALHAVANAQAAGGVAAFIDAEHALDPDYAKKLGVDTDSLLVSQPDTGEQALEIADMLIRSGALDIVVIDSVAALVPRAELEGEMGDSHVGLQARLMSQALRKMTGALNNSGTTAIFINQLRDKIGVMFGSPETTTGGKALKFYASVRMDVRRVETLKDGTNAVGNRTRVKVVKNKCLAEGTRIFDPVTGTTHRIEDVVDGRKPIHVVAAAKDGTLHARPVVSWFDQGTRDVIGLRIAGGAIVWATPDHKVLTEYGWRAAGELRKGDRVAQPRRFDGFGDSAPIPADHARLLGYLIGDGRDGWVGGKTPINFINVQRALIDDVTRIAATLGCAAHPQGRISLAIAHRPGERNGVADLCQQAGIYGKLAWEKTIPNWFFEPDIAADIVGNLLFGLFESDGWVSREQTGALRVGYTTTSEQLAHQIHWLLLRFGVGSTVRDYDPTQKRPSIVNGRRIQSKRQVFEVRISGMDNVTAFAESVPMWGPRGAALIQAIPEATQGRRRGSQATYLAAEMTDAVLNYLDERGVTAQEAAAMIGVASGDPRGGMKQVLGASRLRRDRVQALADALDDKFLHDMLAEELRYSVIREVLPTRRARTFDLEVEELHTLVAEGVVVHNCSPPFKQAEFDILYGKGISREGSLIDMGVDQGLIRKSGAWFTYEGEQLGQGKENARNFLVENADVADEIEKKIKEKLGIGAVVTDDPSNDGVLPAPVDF

[29] = target: T6, Polyadenylate-binding protein 1 (Homo sapiens, UniProt P11940); test: MLLE binding blockers, Cy5 peptide tracer – biochemical, fluorescence polarization, Cy5-PAM2 peptide, secondary, miRNA deadenylation inhibitor project, dose response (AID 602260); type: functional; conditions: read-out: IC50_Mean
[30] = target: T6, Polyadenylate-binding protein 1; test: MLLE domain peptide-binding blockers, IC50 – biochemical, fluorescence polarization, FITC-PAM2 peptide, dose response (AID 602259); type: functional; conditions: read-out: IC50_Mean
[31] = target: T7, Dual specificity protein phosphatase 6 (Rattus norvegicus, UniProt Q64346); test: inhibition of rat DUSP6 enzyme activity – biochemical, in vitro, primary screen (AID 425)
T7 sequence (Q64346 whole entry): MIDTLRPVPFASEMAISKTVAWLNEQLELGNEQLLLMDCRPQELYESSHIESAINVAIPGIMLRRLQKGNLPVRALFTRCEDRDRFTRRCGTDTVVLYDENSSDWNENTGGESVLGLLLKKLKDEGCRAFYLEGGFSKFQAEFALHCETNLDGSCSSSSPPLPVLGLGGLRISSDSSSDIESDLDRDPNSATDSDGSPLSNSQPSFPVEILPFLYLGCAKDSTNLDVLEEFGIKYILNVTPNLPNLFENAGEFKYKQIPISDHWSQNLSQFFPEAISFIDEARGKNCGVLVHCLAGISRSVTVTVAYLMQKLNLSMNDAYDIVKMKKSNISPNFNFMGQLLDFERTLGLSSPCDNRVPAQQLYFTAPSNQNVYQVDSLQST

Estrogen receptor beta [32] = target: T1, Estrogen receptor beta

T1 sequence (Q92731 whole entry): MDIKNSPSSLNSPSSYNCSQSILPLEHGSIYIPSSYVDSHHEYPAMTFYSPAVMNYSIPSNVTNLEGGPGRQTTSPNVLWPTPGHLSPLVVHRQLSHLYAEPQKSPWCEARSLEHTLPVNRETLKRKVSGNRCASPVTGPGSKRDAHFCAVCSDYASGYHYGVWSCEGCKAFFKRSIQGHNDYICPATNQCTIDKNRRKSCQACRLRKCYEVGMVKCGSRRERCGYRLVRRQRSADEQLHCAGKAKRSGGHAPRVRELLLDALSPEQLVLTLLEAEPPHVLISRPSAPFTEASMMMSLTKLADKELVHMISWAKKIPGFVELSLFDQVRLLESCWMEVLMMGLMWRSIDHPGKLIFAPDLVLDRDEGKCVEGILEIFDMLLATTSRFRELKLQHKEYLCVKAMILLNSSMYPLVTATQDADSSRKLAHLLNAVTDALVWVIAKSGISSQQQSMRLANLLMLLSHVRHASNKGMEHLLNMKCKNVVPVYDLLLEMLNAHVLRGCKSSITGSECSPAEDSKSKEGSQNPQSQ
T6 sequence (P11940 whole entry, the tested form may be a part): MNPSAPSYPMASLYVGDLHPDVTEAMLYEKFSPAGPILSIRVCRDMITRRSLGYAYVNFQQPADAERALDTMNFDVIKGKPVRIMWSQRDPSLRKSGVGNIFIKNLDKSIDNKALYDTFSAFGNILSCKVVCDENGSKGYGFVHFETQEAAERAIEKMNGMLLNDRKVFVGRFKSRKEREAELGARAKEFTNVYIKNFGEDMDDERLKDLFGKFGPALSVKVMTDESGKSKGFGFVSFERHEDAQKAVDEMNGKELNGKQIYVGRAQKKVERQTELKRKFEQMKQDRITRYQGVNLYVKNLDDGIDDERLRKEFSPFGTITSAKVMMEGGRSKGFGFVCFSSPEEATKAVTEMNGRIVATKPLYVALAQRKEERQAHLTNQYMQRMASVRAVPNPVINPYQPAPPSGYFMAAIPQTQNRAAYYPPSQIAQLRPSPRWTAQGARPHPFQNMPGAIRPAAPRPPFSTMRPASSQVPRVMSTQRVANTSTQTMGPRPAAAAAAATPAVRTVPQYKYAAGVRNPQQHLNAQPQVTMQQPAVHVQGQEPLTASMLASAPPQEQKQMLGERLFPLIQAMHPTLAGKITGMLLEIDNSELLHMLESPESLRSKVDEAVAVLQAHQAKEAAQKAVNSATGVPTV
Aryl hydrocarbon receptor, sequence (P35869 whole entry): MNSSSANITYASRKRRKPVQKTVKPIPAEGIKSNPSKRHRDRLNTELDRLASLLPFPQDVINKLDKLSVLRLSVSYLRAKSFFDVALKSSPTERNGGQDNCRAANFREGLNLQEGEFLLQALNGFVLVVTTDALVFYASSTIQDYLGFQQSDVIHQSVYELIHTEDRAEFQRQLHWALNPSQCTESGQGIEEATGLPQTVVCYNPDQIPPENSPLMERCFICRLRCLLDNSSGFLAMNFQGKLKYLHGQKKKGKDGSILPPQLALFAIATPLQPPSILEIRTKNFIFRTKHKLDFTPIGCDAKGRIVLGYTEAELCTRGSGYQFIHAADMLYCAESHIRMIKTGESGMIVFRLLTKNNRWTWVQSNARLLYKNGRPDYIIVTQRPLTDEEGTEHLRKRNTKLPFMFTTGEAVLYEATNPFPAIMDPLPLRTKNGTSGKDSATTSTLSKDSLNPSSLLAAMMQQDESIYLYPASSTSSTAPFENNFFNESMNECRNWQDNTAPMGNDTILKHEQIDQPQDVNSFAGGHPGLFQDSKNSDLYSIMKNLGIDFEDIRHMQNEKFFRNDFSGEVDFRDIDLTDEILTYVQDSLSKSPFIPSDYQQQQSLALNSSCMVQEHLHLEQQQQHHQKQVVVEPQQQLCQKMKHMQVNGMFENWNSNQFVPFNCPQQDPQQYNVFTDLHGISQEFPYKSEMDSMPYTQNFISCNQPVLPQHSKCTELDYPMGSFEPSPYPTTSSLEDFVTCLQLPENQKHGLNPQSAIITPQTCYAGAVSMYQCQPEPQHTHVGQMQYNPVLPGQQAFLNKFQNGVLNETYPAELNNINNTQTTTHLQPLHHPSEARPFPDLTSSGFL

CN(C)c1ccc(NC(=O)N2CCOCC2)cc1
IC50 (Estrogen receptor beta [1]): 0.0633 µM (not active)

Cc1ccc(Nc2nc(NCCO)c3ccccc3n2)cc1C
CC50 (Vero [2]): 13.4 µM (active) | IC50 [3]: > 20 µM (inactive)

Fc1ccccc1NC(=S)N/N=C/c1ccccc1Br
EC50 [4]: 0.578 µM (active) | EC50 [5]: 0.376 µM (active) | EC50 [6]: 5.76 µM (active) | EC50 [7]: < 0.1 µM (active) | EC50 [8]: 0.219 µM (active) | EC50 (H4): > 120 µM (not active)

CN1CCN(CCCN2c3ccccc3Sc3ccc(C(F)(F)F)cc32)CC1
EC50 [9]: 11.9 µM (active) | IC50 [3]: > 20 µM (inactive) | IC50 [10]: 2.63 µM (active) | IC50 [11]: 2.81 µM (active) | IC50 [12]: 7.35 µM (inactive) | EC50 [13]: 11.9 µM (active) | IC50 [14]: > 40 µM (inactive) | IC50 [15]: 2.36 µM (active) | EC50 [16]: 11.7 µM (active) | IC50 [17]: 0.565 µM (active) | IC50 [18]: 3.23 µM (active) | IC50 [19]: 2.72 µM (active) | IC50 [20]: 7.22 µM (inactive) | IC50 [21]: > 40 µM (inactive) | EC50 [22]: 7.72 µM (active)

COc1ccc(Br)cc1CNc1ccc(O)cc1
CC50 [23]: > 40 µM (active) | IC50 [24]: 26.8 µM (active) | IC50 (Protein Tat): 46.7 µM (inconclusive)

CC(=O)OC1CC[C@]2(C#N)[C@H]3CC[C@]4(C)[C@H](C5C=CC(=O)O5)CCC4(O)C3CCC2(O)C1 (stereo partly specified)
CC50 (Vero [2]): 13.5 µM (active) | CC50 (Vero [25]): 18.5 µM (active)

CCCCSc1nc2c(cnn2-c2ccccc2)c(=O)n1N
EC50 [4]: 0.348 µM (active) | EC50 [5]: 0.347 µM (active) | EC50 [6]: 0.646 µM (active) | EC50 [7]: < 0.1 µM (active) | EC50 (H4): > 120 µM (not active)

CCC(Sc1nc(O)cc(-c2ccccc2)n1)C(=O)O (stereo unspecified)
IC50 [26]: > 100 µM (active)

CN1C(=O)C2(OCC(COc3ccc(Cl)cc3)O2)c2ccccc21 (stereo unspecified)
EC50 [9]: > 20 µM (not active) | EC50 [22]: > 20 µM (not active)

O=C(Nc1ccc2c(c1)OCO2)c1ccncc1
EC50 [27]: 25.3 µM (not active)

COc1ccccc1Nc1nn2c(=O)c3ccc(C(=O)NCc4cccnc4)cc3nc2s1
IC50 [28]: 4.9 µM (active)

Cc1ccc(C(=O)N/N=C\c2cc(Br)c(Br)o2)cn1
CC50 [23]: 18.2 µM (active) | EC50 (Protein RecA): > 380 µM (inconclusive) | IC50 [29]: > 66 µM (inactive) | IC50 [30]: 46.3 µM (inactive)

O=C1CC(c2ccccc2)c2cc(O)ccc2O1 (stereo unspecified)
EC50 [13]: 32 µM (active) | EC50 [16]: 34.8 µM (active) | IC50 [31]: > 100 µM (not active)

CCOC(=O)Cn1cnc2sc3c(c2c1=O)CCC3
IC50 (Estrogen receptor beta [32]): 3.62 µM (active) | IC50 (Estrogen receptor beta [1]): 106 µM (not active)

O=C(CSc1nnc(C2CCCCC2)n1Cc1ccccc1)NCc1ccco1
IC50 [26]: > 100 µM (active) | IC50 (Protein Tat): > 100 µM (active)

O=C(Nc1cccc(Cl)c1)c1ccc(O)nn1
EC50 [27]: 3.4 µM (active)

From ChEMBL document CHEMBL1201862, “PubChem BioAssay data set” (2004)
